Results as given in patent US6270957A, “Non-Imuunosuppressive cyclosporins and their use in the prevention and treatment of HIV infection” (Wisconsin Alumni Research Foundation, priority 1999, dated 2001).
Square brackets hold non-standard residues; d marks the D form. Side chains are listed from the residue outwards. Peptide text beside a SMILES is read from it. * marks the point of attachment. X2 = CC(C)CN(C[C@@H](O)[C@H](Cc1ccc(OCC(=O)*)cc1)NC(=O)O[C@H]1CCOC1)S(=O)(=O)c1ccc(N)cc1; X1 = NC(=O)C[C@H](NC(=O)OCc1ccccc1)C(=O)N[C@@H](Cc1ccccc1)[C@@H](O)CN1CCC[C@H]1C(=O)*; X3 = CC(C)(C)c1cc(OCC(=O)*)ccc1Sc1c(O)cc(-c2ccccc2)oc1=O; NMeLeu(3R-OH) = CN[C@H](C(=O)O)[C@H](O)C(C)C; NMeL = CN[C@@H](CC(C)C)C(=O)O; NMeV = CN[C@H](C(=O)O)C(C)C; dNMeS = CN[C@H](CO)C(=O)O; Abu = CC[C@H](N)C(=O)O

Key:
cyclophilin = cyclophilin (Homo sapiens, UniProt P62937); experiment: Inhibition of cyclophilin; assay type: biochemical; details: read-out: Ki against cyclophilin
Sequence of cyclophilin (P62937 whole entry): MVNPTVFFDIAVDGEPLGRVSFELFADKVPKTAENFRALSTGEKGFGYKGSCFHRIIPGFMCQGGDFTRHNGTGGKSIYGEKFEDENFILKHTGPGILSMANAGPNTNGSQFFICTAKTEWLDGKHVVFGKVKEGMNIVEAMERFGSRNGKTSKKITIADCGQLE

HIV protease = biological target: T1, HIV protease (Human immunodeficiency virus type 1 group M subtype B, UniProt P04585); experiment: Inhibition of HIV protease; assay type: biochemical; details: read-out: Ki against HIV protease
T1 construct: HIV protease is an aspartic protease that cleaves the immature viral protein gag-pol into mature structural proteins and enzymes

HIV-1 = details: CEM cells, HIV-1, 6 days, XTT; quadruplicate runs
Description: The procedure used in the National Cancer Institute's test for agents active against human immunodeficiency virus (HIV) is designed to detect agents acting at any stage of the virus reproductive cycle. The assay basically involves the killing of T4 lymphocytes by HIV. Small amounts of HIV are added to cells, and two cycles of virus reproduction are necessary to obtain the required cell killing. Agents that interact with virions, cells, or virus gene-products to interfere with viral activities will protect cells from cytolysis. The system is automated in several features to accommodate large numbers of candidate agents and is generally designed to detect anti-HIV activity. However, compounds that degenerate or are rapidly metabolized in the culture conditions may not show activity in this screen. All tests are compared with at least one positive (e.g., AZT-treated) control done at the same time under identical conditions.
Candidate agent is dissolved in dimethyl sulfoxide (unless otherwise instructed) then diluted 1:100 in cell culture medium before preparing serial half-log10 dilutions. […]
Individual wells are analyzed spectrophotometrically to quantitate formazan production, and in addition are viewed microscopically for detection of viable cells and confirmation of protective activity. […]

[1] = compared with DMP-323; cited from earlier work
HIV = details: read-out: anti-HIV potency IC90; cited from earlier work

Compound | Ki (cyclophilin) | Ki (HIV protease) | NCI determination of anti-HIV activity (HIV-1) | plasma concentrations [1] | IC90 (HIV)
CC[C@@H]1NC(=O)[C@H]([C@H](O)C(C)C)N(C)C(=O)[C@H](C(C)C)N(C)C(=O)[C@H](CC(C)C)N(C)C(=O)[C@H](CC(C)C)N(C)C(=O)[C@@H](C)NC(=O)[C@H](CCCCNC(=O)[C@H](Cc2ccccc2)NC(=O)[C@@H](NC(=O)[C@@H]2CCCN2C[C@H](O)[C@H](Cc2ccccc2)NC(=O)[C@H](CC(N)=O)NC(=O)OCc2ccccc2)[C@@H](C)CC)NC(=O)[C@H](CC(C)C)N(C)C(=O)[C@H](C(C)C)NC(=O)[C@H](CC(C)C)N(C)C(=O)[C@@H](CO)N(C)C1=O [Compound 2.8] (cyclo([Abu][dNMeS][NMeL]V[NMeL]K([Phe-Ile-X1])[dA][NMeL][NMeL][NMeV][NMeLeu(3R-OH)])) | 20 nM | 1 nM | – | – | –
CC[C@@H]1NC(=O)[C@H]([C@H](O)C(C)C)N(C)C(=O)[C@H](C(C)C)N(C)C(=O)[C@H](CC(C)C)N(C)C(=O)[C@H](CC(C)C)N(C)C(=O)[C@@H](C)NC(=O)[C@H](CCCCNC(=O)COc2ccc(Sc3c(O)cc(-c4ccccc4)oc3=O)c(C(C)(C)C)c2)NC(=O)[C@H](CC(C)C)N(C)C(=O)[C@H](C(C)C)NC(=O)[C@H](CC(C)C)N(C)C(=O)[C@@H](CO)N(C)C1=O [Compound 2.9] (cyclo([Abu][dNMeS][NMeL]V[NMeL]K(X3)[dA][NMeL][NMeL][NMeV][NMeLeu(3R-OH)])) | 9.3 nM | 3.4 nM | – | – | –
CC[C@@H]1NC(=O)[C@H]([C@H](O)C(C)C)N(C)C(=O)[C@H](C(C)C)N(C)C(=O)[C@H](CC(C)C)N(C)C(=O)[C@H](CC(C)C)N(C)C(=O)[C@@H](C)NC(=O)[C@H](CCCCNC(=O)COc2ccc(C[C@H](NC(=O)O[C@H]3CCOC3)[C@H](O)CN(CC(C)C)S(=O)(=O)c3ccc(N)cc3)cc2)NC(=O)[C@H](CC(C)C)N(C)C(=O)[C@H](C(C)C)NC(=O)[C@H](CC(C)C)N(C)C(=O)[C@@H](CO)N(C)C1=O [Compound 2.10] (cyclo([NMeLeu(3R-OH)][Abu][dNMeS][NMeL]V[NMeL]K(X2)[dA][NMeL][NMeL][NMeV])) | 6 nM | 2.3 nM | confirmed active | – | –
Nc1cccc(CN2C(=O)N(Cc3cccc(N)c3)[C@H](Cc3ccccc3)[C@H](O)[C@@H](O)[C@H]2Cc2ccccc2)c1 [DMP-450] | – | – | – | much higher plasma concentrations | –
O=C(Nc1nc2ccccc2[nH]1)c1cccc(CN2C(=O)N(Cc3cccc(C(=O)Nc4nc5ccccc5[nH]4)c3)[C@H](Cc3ccccc3)[C@H](O)[C@@H](O)[C@H]2Cc2ccccc2)c1 [SD-146] | – | – | – | – | 5.1 nM
